Source: patent US20240392302A1, “METHOD FOR DETECTING AND QUANTIFYING RNA” (FLUORESCENCE DIAGNOSIS (SHANGHAI) BIOTECH COMPANY LTD., priority 2021, published 2024)

Key:
RNA aptamers = conditions: cited from earlier work
[1] = N16-1 as a label for RNA extraction and purification; conditions: total RNA of COS-7 cells; eluent vs crushed supernatant, incubated with I-5-14
Procedure: In order to detect the application of N16-1 to RNA extraction and purification, the pCDNA3.1/hygro(+)-ACTB-N16-1 recombinant plasmids in Example 13 were transfected into COS-7 cells, cells were collected 24 h later, and total RNA of cells was extracted by using Eastep Super total RNA extraction kit (Promega). The extracted total RNA dissolved in a buffer solution having a pH value of 7.4 and containing 40 mM of HEPES, 125 mM of KCl and 5 mM of MgCl2, and was incubated at 70° C. for 10 min, and then was placed at room temperature for more than 30 min.
500 μL of Activated Thiol Sepharose 4B (GE Healthcare) was taken and was washed twice with 500 μL of PBS, and PBS containing 10 mM of TCEP (Sigma) was added for incubation at room temperature for 1 h. 500 μL of PBS was used for cleaning twice, I-5-14 fluorophore molecules (Mal-I-5-14) containing maleic amide were added for reaction at room temperature for 30 min, and then 500 μL of PBS was used for cleaning for three times. […]
With crushed supernatant of blank cells as control, the fluorescence of the crushed supernatant of cells incubated with fluorophore I-5-14, and that of the eluent after final high temperature elution incubated with fluorophore I-5-14 were respectively detected.

## CN(C)c1ccc(C(=C2C=CC(=[N+](C)C)C=C2)c2ccccc2)cc1 [MG, malachite green]
RNA aptamers
  fluorescence enhancement multiple: 2360

B1: ACTB-N16-1: ACTB-N16-1 chimeric RNA, SEQ ID NO: 13 (nucleic acid)
chain: ANGGANGANGANANCGCCGCGCNCGNCGNCGACAACGGCNCCGGCANGNGCAAGGCCGGCNNCGCGGGCGACGANGCCCCCCGGGCCGNCNNCCCCNCCANCGNGGGGCGCCCCAGGCACCAGGGCGNGANGGNGGGCANGGGNCAGAAGGANNCCNANGNGGGCGACGAGGCCCAGAGCAAGAGAGGCANCCNCACCCNGAAGNACCCCANCGAGCACGGCANCGNCACCAACNGGGACGACANGGAGAAAANCNGGCACCACACCNNCNACAANGAGCNGCGNGNGGCNCCCGAGGAGCACCCCGNGCNGCNGACCGAGGCCCCCCNGAACCCCAAGGCCAACCGCGAGAAGANGACCCAGANCANGNNNGAGACCNNCAACACCCCAGCCANGNACGNNGCNANCCAGGCNGNGCNANCCCNGNACGCCNCNGGCCGNACCACNGGCANCGNGANGGACNCCGGNGACGGGGNCACCCACACNGNGCCCANCNACGAGGGGNANGCCCNCCCCCANGCCANCCNGCGNCNGGACCNGGCNGGCCGGGACCNGACNGACNACCNCANGAAGANCCNCACCGAGCGCGGCNACAGCNNCACCACCACGGCCGAGCGGGAAANCGNGCGNGACANNAAGGAGAAGCNGNGCNACGNCGCCCNGGACNNCGAGCAAGAGANGGCCACGGCNGCNNCCAGCNCCNCCCNGGAGAAGAGCNACGAGCNGCCNGACGGCCAGGNCANCACCANNGGCAANGAGCGGNNCCGCNGCCCNGAGGCACNCNNCCAGCCNNCCNNCCNGGGCANGGAGNCCNGNGGCANCCACGAAACNACCNNCAACNCCANCANGAAGNGNGACGNGGACANCCGCAAAGACCNGNACGCCAACACAGNGCNGNCNGGCGGCACCACCANGNACCCNGGCANNGCCGACAGGANGCAGAAGGAGANCACNGCCCNGGCACCCAGCACAANGAAGANCAAGANCANNGCNCCNCCNGAGCGCAAGNACNCCGNGNGGANCGGCGGCNCCANCCNGGCCNCGCNGNCCACCNNCCAGCAGANGNGGANCAGCAAGCAGGAGNANGACGAGNCCGGCCCCNCCANCGNCCACCGCAAANGCNNCNAGCNCGAGGCCGCGGGCNCCAGGNGCNGCNNCGGCAGGNAACGGACNNAGANCCACNGNACGCCCGCGGC
[1]
  enrichment of RNA on Mal-I-5-14 microbeads: well enriched
